Where a name gives a salt, the structure may show the parent alone.
Tests used:
cultured mouse podocytes = experiment: α-latrotoxin-stimulated glutamate release (enzymatic GDH/NADH assay); format: cell-based
Procedure: α-Latrotoxin stimulated glutamate release was detected by an enzymatic assay based on the following reaction that occurs in presence of glutamate dehydrogenase (GDH): Glutamate−+NAD++H20 ketoglutarate2−+NADH+[…]H+.
Briefly, to this purpose, the same numbers of podocytes obtained from normal mouse glomeruli were plated and grown to semiconfluence. Before measurements, cells were washed and re-suspended for 1 hour at 37° C. in DME incubation buffer (NaCl 109.5 mM, KCl 5.3 mM, glucose 5.5 mM with MgCl2 1 mM, Hepes 20 mM). The medium was further supplemented with GDH (Sigma 60 U/ml) and NAD+ (Sigma 1 mM), and incubated for 5 min. Then, α-latrotoxin was added at subnanomolar (0.5 nM) or nanomolar (2.5 nM) concentration and spectrophotometric increase of optical density (O.D.) due to increase of NADH was monitored at 340 nm. 200 nM Bafilomycin A1 (Sigma), a V-ATPase inhibitor that dissipates the electrochemical proton gradient necessary for glutamate uptake and storage into vescicles43, was added for 30 min at 37° C. to control cell plates before α-latrotoxin stimulation.

podocytes [1] = experiment: [3H]-L-glutamate uptake; format: cell-based, mouse
Procedure: Podocytes were seeded at a density of 15,000 cells/well in 48-well plates, Two days later the culture medium was removed, the adherent washed two times with 0.5 mL/well of assay buffer (10 mM Tris-acetate, 128 mM NaCl, 10 mM D-glucose, 5 mM KCl, 1.5 mM NaH2PO4, 1 mM MgSO4, 1 mM CaCl2, pH 7.4) and then incubated for 15 min at 35° C. in assay buffer (0.3 mL/well) containing 100 nM [3H]-L-glutamate (Amersham, specific activity 47.0 Ci/mmol) with or without different concentrations of cold L-glutamate (from 1 to 1000 μM). Non-specific uptake was determined in parallel samples incubated in a Na+-free buffer (NaCl replaced by cholineCl). […]
In preliminary experiments it was established that the uptake of [3H]-Lglutamate was linear at least up to 15 min (not shown). Cells were then added with 0.3 mL/well of SDS and, after 2 hours on shaking plate, the well content was counted in 4 mL of Ultima Gold MV (Packard Bioscience, Groningen, the Netherlands) in an LKB 1214 Rackbeta liquid scintillation counter with a counting efficiency of about 60%.
Km and Vmax of L-glutamate uptake were determined by fitting the inhibition curve using the “homologous competitive binding curve” equation built into GrapPad Prism version 4.00 for Windows (GraphPad Software, San Diego Calif. USA). […]

primary mouse podocytes = experiment: Phalloidin staining of the actin cytoskeleton; format: cell-based; conditions: 24 h, 50 mM norketamine hydrochloride
Procedure: A Phalloidin staining of primary mouse podocytes after 24 h medium incubation. The actin cytoskeleton is intact. Rhodamine-phalloidin, 100×)
B Phalloidin staining of primary mouse podocytes after 24 h 50 mM norketamine hydrochloride incubation. […] (Rhodamine-phalloidin, 100×)
By immunohistochemistry, we have observed a variation of positivity, either increased or decreased, for other synaptic proteins, such as synapsin 1 (antibody from Abeam), and the ionotropic glutamate receptor NMDA-1 in a variety of human glomerulonephritis (FIG. 12).

podocytes [2] = format: cell-based; conditions: for Calcium content (Fluo4) / Intra-vesicle pH (Lysosensor green) / Membrane potential (RH-414 accumulation and discharge): during stimulated exocytosis
cultured podocytes = experiment: Rab3A and glutamate staining of cultured podocytes before and after α-latrotoxin stimulus; format: cell-based, mouse; conditions: after nanomolar α-latrotoxin treatment
Description: Panel b)-e): Rab3A (b, d) and glutamate (c, e) staining of cultured podocytes before (b, c) and after (d, e) nanomolar α-latrotoxin stimulus. Disappearance of most labeling from the processes of podocytes is evident after stimulation (indirect immunofluorescence, 450×).

primary podocytes = experiment: Synaptic vesicle recycling with styryl dye FM1-43; format: cell-based
Description: The recycling of synaptic vesicles in nerve terminals is a complex multistep process, whose investigation has been made feasible by the use of styryl dyes. These molecules, that reversibly insert into the surface of lipid membranes, have no fluorescent properties in aqueous solution, but become intensely fluorescent upon membrane binding, allowing a labelling of recycling synaptic vesicles that is easily detectable by fluorescence microscopy.

cell membranes = conditions: higher concentrations (>10 nM); cited from earlier work
primary podocyte = experiment: BDNF incubation, process formation (bright-field); format: cell-based; conditions: 250 ng/ml, 20 hour incubation
Procedure: FIG. 18 • A) Bright-field image (200×) showing the in vivo appearance of a primary podocyte before BDNF treatment. • B) The same field is taken after 20 h of BDNF incubation. The cell has produced a number of processes starting from its body.
We have also observed that podocytes are sensitive to 250 ng/ml BDNF (Brain Derived Neurotrophic Factor) (Sigma): after 20 hour incubation with BDNF, in fact, the number of processes extending from the podocyte cell body are increased (FIG. 18).

Molecule: CO/C1=C\C(C)=C\[C@@H](C)[C@@H](O)[C@@H](C)C/C(C)=C/C=C/[C@H](OC)[C@@H]([C@@H](C)[C@@H](O)[C@H](C)[C@@]2(O)C[C@@H](O)[C@H](C)[C@@H](C(C)C)O2)OC1=O [bafilomycin, Bafilomycin A1]
- Glutamate release after α-latrotoxin (cultured mouse podocytes; bafilomycin added 30 min before latrotoxin (0.5 nM or 2.5 nM α-latrotoxin), 200 nM Bafilomycin A1): Absence of glutamate release

Molecule: N[C@@H](CCC(=O)O)C(=O)O [L-glutamate]
- Km (podocytes [1]; Na+-dependent uptake, 100 nM [3H]-L-glutamate, 15 min at 35° C.): 83 µM
- Vmax of L-glutamate uptake (podocytes [1]; estimated, 15,000 cells/well seeded): about 2 pmol/min/well

Molecule: NC1(c2ccccc2Cl)CCCCC1=O (centres unmarked) [norketamine hydrochloride]
- Actin cytoskeleton (rhodamine-phalloidin) (primary mouse podocytes): profound alteration of the actin cytoskeleton

Molecule: [Cl-].[K+] [KCl]
- Induction of stimulated exocytosis (podocytes [2]; 60 mM): can be induced
- Calcium content (Fluo4) (podocytes [2]): rapid variation in calcium content
- Intra-vesicle pH (Lysosensor green) (podocytes [2]): variation of intra-vesicle pH
- Membrane potential (RH-414 accumulation and discharge) (podocytes [2]): rapid variation of the membrane potential

Molecule: tetanus toxin
- Block of exocytotic events (podocytes [2]): can be blocked

Molecule: α-latrotoxin
- Glutamate secretion (generation of NADH, optical density at 340 nm) (cultured mouse podocytes; 0.5 nM α-latrotoxin): continuous exocytosis
- Glutamate secretion (generation of NADH, optical density at 340 nm) (cultured mouse podocytes; 2.5 nM α-latrotoxin): burst of neurotransmitter release, followed by steady state
- Glutamate labeling of cell processes by immunohistochemistry (cultured podocytes): disappearance of most glutamate from cell processes
- Rab3A distribution by immunohistochemistry (cultured podocytes): redistribution of Rab3A
- Calcium content (Fluo4) (podocytes [2]): rapid variation in calcium content
- Intra-vesicle pH (Lysosensor green) (podocytes [2]): variation of intra-vesicle pH
- Membrane potential (RH-414 accumulation and discharge) (podocytes [2]): rapid variation of the membrane potential
- FM1-43 dye uptake (primary podocytes; a few seconds after a first α-latrotoxin stimulus): accumulate the styryl dye FM1-43
- FM1-43 dye release (primary podocytes; after a second α-latrotoxin stimulation): almost completely discharge the dye
- Damage to cell membranes (cell membranes): highly damaging for cell membranes

B1: BDNF: Brain Derived Neurotrophic Factor (Sigma) (protein, UniProt P23560 19-247, looked up)
Neurotrophic factor BDNF …: APMKEANIRGQGGLAYPGVRTHGTLESVNGPKAGSRGLTSLADTFEHVIEELLDEDQKVRPNEENNKDADLYTSRVMLSSQVPLEPPLLFLLEEYKNYLDAANMSMRVRRHSDPARRGELSVCDSISEWVTAADKKTAVDMSGGTVTVLEKVPVSKGQLKQYFYETKCNPMGYTKEGCRGIDKRHWNSQCRTTQSYVRALTMDSKKRIGWRFIRIDTSCVCTLTIKRGR
- Number of processes extending from the podocyte cell body (primary podocyte): increased

Source: US8673851B2, “Synapse-specific proteins in glomeruli” (priority 2005, dated 2014)
